Values of other authors as cited in patent US20230406931A1, “Adjuvant Durvalumab in Combination with Chemotherapy for Treatment of Cancer” (ASTRAZENECA AB, priority 2020, published 2023).

Assays:
[1] = target: PD-L1 (Homo sapiens, UniProt Q9NZQ7); details: in vitro; cited from earlier work
[2] = durvalumab versus placebo following definitive concurrent chemoradiation, PACIFIC study; cited from earlier work
[3] = system: xenograft tumor; details: xenograft model, via a T-cell dependent mechanism; cited from earlier work

Sequence of PD-L1 (Q9NZQ7 19-290): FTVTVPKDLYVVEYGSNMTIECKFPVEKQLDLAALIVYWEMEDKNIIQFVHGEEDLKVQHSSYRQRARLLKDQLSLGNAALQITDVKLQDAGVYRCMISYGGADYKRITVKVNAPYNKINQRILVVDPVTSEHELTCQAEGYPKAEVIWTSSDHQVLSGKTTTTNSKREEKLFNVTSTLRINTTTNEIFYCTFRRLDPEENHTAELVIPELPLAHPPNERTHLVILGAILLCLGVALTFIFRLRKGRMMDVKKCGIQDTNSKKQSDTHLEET

durvalumab: antibody that selectively binds PD-L1 and blocks the binding of PD-L1 to the PD-1 and CD80 receptors
relief of PD-L1-mediated suppression of human T-cell activation [1]: relieve PD-L1-mediated suppression of human T-cell activation | overall survival (OS) [2]: improved | progression-free survival (PFS) [2]: improved | tumor growth [3]: inhibits tumor growth
